Source: patent US8415469B2, “Compounds and methods for kinase modulation, and indications therefor” (Plexxikon Inc., priority 2005, dated 2013)

Experiments:
Assay type in all cases: biochemical
[1] = target: T1, FGFR1 (Homo sapiens, UniProt P11362, C488A/C584S); assay: AlphaScreen kinase assay, FGFR1; details: read-out: IC50, activity toward kinase FGFR
T1 construct: P1351.pET N6 BI-PTP FGFR A458-E765-X C488A, C584S; made in house; host or cells: E. coli (PTP1B co-expressed)

[2] = target: T2, Fms (Homo sapiens, UniProt P07333); assay: AlphaScreen kinase assay, Fms; details: read-out: IC50, activity toward kinase Fms
T2 construct: purchased Upstate Biotechnology

[3] = target: T3, Kit (Homo sapiens, UniProt P10721); assay: AlphaScreen kinase assay, Kit; details: read-out: IC50, activity toward kinase Kit
T3 construct: P1332.N6 BI PTP KIT M552-K948-X COD; His6 (N); made in house; host or cells: E. coli (PTP1B co-expressed)

[4] = target: T4, B-Raf V600E (Homo sapiens, UniProt P15056, V600E); assay: AlphaScreen kinase assay, B-Raf V600E; details: read-out: IC50, activity toward kinase B-Raf V600E
T4 construct: P4254. pFastBacBD-CDC37 BRAF D437-K722-X, V600E; His6 with pFastBac HT leader (TEV site) (N); made in house; host or cells: Sf9 (baculovirus; chaperone CDC37 co-expressed)
T4 sequence (P15056 with tags, fused parts or gaps V600E): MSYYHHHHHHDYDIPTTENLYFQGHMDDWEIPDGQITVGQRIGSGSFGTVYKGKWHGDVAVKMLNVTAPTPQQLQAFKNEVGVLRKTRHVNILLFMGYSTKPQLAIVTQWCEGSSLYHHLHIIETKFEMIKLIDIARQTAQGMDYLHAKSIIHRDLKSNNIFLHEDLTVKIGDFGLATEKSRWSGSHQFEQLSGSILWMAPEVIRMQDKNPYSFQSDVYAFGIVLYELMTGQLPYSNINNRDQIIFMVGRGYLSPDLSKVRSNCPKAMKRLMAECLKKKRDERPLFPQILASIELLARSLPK

T1 sequence (P11362 458-765 C488A/C584S): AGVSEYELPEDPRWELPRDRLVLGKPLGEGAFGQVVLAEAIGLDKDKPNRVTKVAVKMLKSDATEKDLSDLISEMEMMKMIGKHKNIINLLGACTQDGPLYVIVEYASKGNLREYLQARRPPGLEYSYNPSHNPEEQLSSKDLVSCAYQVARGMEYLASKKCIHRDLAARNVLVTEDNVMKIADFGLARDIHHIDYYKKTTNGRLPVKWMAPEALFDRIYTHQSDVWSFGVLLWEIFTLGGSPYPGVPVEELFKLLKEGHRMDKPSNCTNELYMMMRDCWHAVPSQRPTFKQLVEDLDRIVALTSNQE
T2 sequence (P07333 20-972): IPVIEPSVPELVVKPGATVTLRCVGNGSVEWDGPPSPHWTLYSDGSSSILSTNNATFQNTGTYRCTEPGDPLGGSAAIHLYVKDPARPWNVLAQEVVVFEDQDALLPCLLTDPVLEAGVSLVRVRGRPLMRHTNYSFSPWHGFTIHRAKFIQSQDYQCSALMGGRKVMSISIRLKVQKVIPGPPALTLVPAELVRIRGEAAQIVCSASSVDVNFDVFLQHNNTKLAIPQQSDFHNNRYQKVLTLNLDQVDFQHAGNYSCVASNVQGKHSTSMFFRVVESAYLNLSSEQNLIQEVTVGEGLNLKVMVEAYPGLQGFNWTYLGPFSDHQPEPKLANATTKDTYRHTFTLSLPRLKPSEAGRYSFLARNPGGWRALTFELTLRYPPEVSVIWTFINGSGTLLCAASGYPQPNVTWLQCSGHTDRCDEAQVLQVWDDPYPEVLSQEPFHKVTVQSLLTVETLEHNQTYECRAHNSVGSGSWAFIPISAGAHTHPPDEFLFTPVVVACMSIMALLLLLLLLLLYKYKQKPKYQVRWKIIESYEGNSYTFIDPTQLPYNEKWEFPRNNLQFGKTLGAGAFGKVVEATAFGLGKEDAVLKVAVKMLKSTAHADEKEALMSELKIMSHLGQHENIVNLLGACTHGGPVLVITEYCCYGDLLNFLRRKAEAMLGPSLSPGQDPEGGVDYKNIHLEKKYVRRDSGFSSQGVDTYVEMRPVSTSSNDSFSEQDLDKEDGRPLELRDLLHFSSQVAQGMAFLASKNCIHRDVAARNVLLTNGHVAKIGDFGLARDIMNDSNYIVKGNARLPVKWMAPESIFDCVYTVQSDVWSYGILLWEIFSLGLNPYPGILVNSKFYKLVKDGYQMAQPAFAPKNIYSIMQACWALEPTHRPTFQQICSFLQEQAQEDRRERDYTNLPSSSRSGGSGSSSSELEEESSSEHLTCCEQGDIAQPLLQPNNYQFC
T3 sequence (P10721 with tags, fused parts or gaps): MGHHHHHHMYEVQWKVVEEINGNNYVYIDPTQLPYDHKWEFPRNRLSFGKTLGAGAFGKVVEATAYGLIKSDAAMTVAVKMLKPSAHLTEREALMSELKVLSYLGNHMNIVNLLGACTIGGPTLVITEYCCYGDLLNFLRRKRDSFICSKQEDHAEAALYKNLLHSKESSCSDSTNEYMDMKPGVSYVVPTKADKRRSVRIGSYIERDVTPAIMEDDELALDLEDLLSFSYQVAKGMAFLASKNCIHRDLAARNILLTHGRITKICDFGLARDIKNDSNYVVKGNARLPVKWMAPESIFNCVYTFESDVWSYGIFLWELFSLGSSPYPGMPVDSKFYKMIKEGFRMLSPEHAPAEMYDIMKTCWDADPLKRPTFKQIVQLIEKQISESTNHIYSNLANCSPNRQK

Row | SMILES | IC50 [1] | IC50 [2] | IC50 [3] | other results
1 | COc1cccc(Cc2c[nH]c3ncc(-c4cccc(OC(F)(F)F)c4)cc23)c1F [Compound P-1328, 3-(2-Fluoro-3-methoxy-benzyl)-5-(3-trifluoromethoxy-phenyl)-1H-pyrrolo[2,3-b]pyridine] | ≤ 10 µM | ≤ 10 µM | – | –
2 | COc1cccc(C(=O)c2c[nH]c3ncc(-c4ccc(C#N)cc4)cc23)c1F [Compound P-1335, 4-[3-(2-Fluoro-3-methoxy-benzoyl)-1H-pyrrolo[2,3-b]pyridin-5-yl]-benzonitrile] | ≤ 10 µM | ≤ 10 µM | – | –
3 | O=C(Nc1ccc(F)cc1)Nc1ccc(F)c(Cc2c[nH]c3ncc(Cl)cc23)c1F [Compound P-1657, 1-[3-(5-Chloro-1H-pyrrolo[2,3-b]pyridin-3-ylmethyl)-2,4-difluoro-phenyl]-3-(4-fluoro-phenyl)-urea] | – | ≤ 10 µM | – | –
4 | O=C(c1cccc(OC(F)(F)F)c1)c1c[nH]c2ncc(-c3ccccc3)cc12 [Compound P-1408, (5-Phenyl-1H-pyrrolo[2,3-b]pyridin-3-yl)-(3-trifluoromethoxy-phenyl)-methanone] | – | – | ≤ 10 µM | –
5 | COC(c1c(F)ccc(NC(=O)Nc2ccc(F)cc2)c1F)c1c[nH]c2ncc(Cl)cc12 (stereo not drawn) [Compound P-1653] | – | ≤ 10 µM | – | –
6 | COCCNC(=O)Nc1cccc(C(=O)c2c[nH]c3ncccc23)c1 [Compound P-1761, 1-(2-Methoxy-ethyl)-3-[3-(1H-pyrrolo[2,3-b]pyridine-3-carbonyl)-phenyl]urea] | – | ≤ 10 µM | – | –
7 | O=C(NCC1CC1)Nc1ccc(F)c(Cc2c[nH]c3ncc(Cl)cc23)c1F [Compound P-1652, 1-[3-(5-Chloro-1H-pyrrolo[2,3-b]pyridin-3-ylmethyl)-2,4-difluoro-phenyl]-3-cyclopropylmethyl-urea] | – | ≤ 10 µM | – | –
8 | c1ccc(Nc2cnc3[nH]ccc3c2)cc1 [Compound P-0384] | – | – | ≤ 10 µM | –
9 | OC(c1ccc(NCc2ccc(C(F)(F)F)cc2)nc1)c1c[nH]c2ncccc12 (stereo not drawn) [Compound P-0291] | – | ≤ 10 µM | – | –
10 | O=[N+]([O-])c1ccc(Sc2c[nH]c3ncc(Cl)cc23)nc1 [Compound P-1562] | – | – | ≤ 10 µM | –
11 | O=C(c1ccc2c(c1)OC(F)(F)O2)c1c[nH]c2ncc(-c3cccnc3)cc12 [Compound P-1558, (2,2-Difluoro-benzo[1,3]dioxol-5-yl)-(5-pyridin-3-yl-1H-pyrrolo[2,3-b]pyridin-3-yl)-methanone] | – | ≤ 10 µM | – | IC50 [4]: ≤ 10 µM
12 | O=C(c1cccc(OC(F)F)c1)c1c[nH]c2ncc(Br)cc12 [Compound P-1514, (5-Bromo-1H-pyrrolo[2,3-b]pyridin-3-yl)-(3-difluoromethoxy-phenyl)-methanone] | – | – | ≤ 10 µM | –
13 | OC(c1cccc(OC(F)F)c1)c1c[nH]c2ncc(Br)cc12 (stereo not drawn) [Compound P-1511] | – | ≤ 10 µM | – | –
14 | COc1cccc(Cc2c[nH]c3ncc(-c4ccc(Cl)s4)cc23)c1 [Compound P-0658] | ≤ 10 µM | – | ≤ 10 µM | –
15 | COc1cc(C(OC)c2c[nH]c3ncccc23)ccc1OCc1ccc(Cl)cc1 (stereo not drawn) [Compound P-1340] | ≤ 10 µM | ≤ 10 µM | – | –
16 | COc1cccc(Cc2c[nH]c3ncccc23)c1 [Compound P-0239] | – | ≤ 10 µM | – | –
17 | COc1nc(NCc2ccc(C(F)(F)F)cc2)ccc1Cc1c[nH]c2ncccc12 [Compound P-1124] | – | ≤ 10 µM | – | –
18 | Cn1cnnc1-c1cccc(Nc2c[nH]c3ncccc23)c1 [Compound P-1504, [3-(4-Methyl-4H-[1,2,4]triazol-3-yl)-phenyl]-(1H-pyrrolo[2,3-b]pyridin-3-yl)-amine] | – | ≤ 10 µM | – | –
19 | O=C(c1ccc2nsnc2c1)c1c[nH]c2ncc(-c3cccnc3)cc12 [Compound P-0905] | – | – | ≤ 10 µM | IC50 [4]: ≤ 10 µM
20 | O=C(c1ccc(Cl)cc1Cl)c1c[nH]c2ncc(Br)cc12 [Compound P-1565] | – | – | ≤ 10 µM | –
21 | c1ccc(Sc2c[nH]c3ncccc23)cc1 [Compound P-0626] | – | – | ≤ 10 µM | –
22 | OCc1cccc(-c2c(CNCC(O)c3ccc(O)cc3)[nH]c3ncccc23)c1 (stereo not drawn) [Compound P-0554] | – | – | ≤ 10 µM | –
23 | Clc1ccc(-c2cnc3[nH]ccc3c2)cc1 [Compound P-0815] | – | – | ≤ 10 µM | –
24 | CCCS(=O)(=O)Nc1ccc(F)c(C(OC)c2c[nH]c3ncc(Br)cc23)c1F (stereo not drawn) [Compound P-1275] | – | – | ≤ 10 µM | –
25 | COc1cccc(Cc2c[nH]c3ncc(-c4ccccc4)cc23)c1 [Compound P-1084] | – | – | ≤ 10 µM | –
26 | O=C(c1cccc(C(F)(F)F)c1)c1c[nH]c2ncc(-c3ccccc3)cc12 [Compound P-1405, (5-Phenyl-1H-pyrrolo[2,3-b]pyridin-3-yl)-(3-trifluoromethyl-phenyl)-methanone] | – | ≤ 10 µM | – | –

Row | SMILES | IC50 [1] | IC50 [2] | IC50 [3] | other results
27 | CN(C)c1ccc(Cc2c[nH]c3ncccc23)cn1 [Compound P-0935] | ≤ 10 µM | – | ≤ 10 µM | –
28 | O=C(c1ccccc1OCc1ccccc1)c1c[nH]c2ncc(Br)cc12 [Compound P-1382] | ≤ 10 µM | – | ≤ 10 µM | –
29 | CCCCOc1ccc(NC(=O)Nc2cccc(C(=O)c3c[nH]c4ncc(-c5ccc(F)cc5)cc34)c2)cc1 [Compound P-1754, 1-(4-Butoxy-phenyl)-3-{3-[5-(4-fluoro-phenyl)-1H-pyrrolo[2,3-b]pyridine-3-carbonyl]-phenyl}-urea] | – | ≤ 10 µM | – | –
30 | FC(F)Oc1cc(Cc2c[nH]c3ncc(Br)cc23)cc(OC(F)F)c1 [Compound P-1538, 3-(3,5-Bis-difluoromethoxy-benzyl)-5-bromo-1H-pyrrolo[2,3-b]pyridine] | ≤ 10 µM | – | ≤ 10 µM | –
31 | c1ccc(CNc2ccc(Cc3c[nH]c4ncccc34)cc2)cc1 [Compound P-0493] | ≤ 10 µM | – | – | IC50 [4]: ≤ 10 µM
32 | CS(=O)(=O)Nc1cccc(-c2cnc3[nH]cc(C(=O)c4cccc5c4OC(F)(F)O5)c3c2)c1 [Compound P-1516, N-{3-[3-(2,2-Difluoro-benzo[1,3]dioxole-4-carbonyl)-1H-pyrrolo[2,3-b]pyridin-5-yl]-phenyl}-methanesulfonamide] | ≤ 10 µM | – | – | IC50 [4]: ≤ 10 µM
33 | O=C(c1ccc(Cl)nc1)c1c[nH]c2ncc(Br)cc12 [Compound P-0499] | – | – | ≤ 10 µM | –
34 | O=C(c1ccc2c(c1)OC(F)(F)O2)c1c[nH]c2ncc(Br)cc12 [Compound P-1551, (5-Bromo-1H-pyrrolo[2,3-b]pyridin-3-yl)-(2,2-difluoro-benzo[1,3]dioxol-5-yl)-methanone] | – | – | ≤ 10 µM | –
35 | CC(=O)Nc1cccc(-c2cnc3[nH]cc(C(=O)c4cc(F)cc(C(F)(F)F)c4)c3c2)c1 [Compound P-1421, N-{3-[3-(3-Fluoro-5-trifluoromethyl-benzoyl)-1H-pyrrolo[2,3-b]pyridin-5-yl]-phenyl}-acetamide] | – | ≤ 10 µM | – | –
36 | COc1cccc(CCc2c[nH]c3ncccc23)c1 [Compound P-0450] | – | – | ≤ 10 µM | –
37 | COc1cccc(C(=O)c2c[nH]c3ncc(Nc4ccccc4)cc23)c1 [Compound P-1120] | ≤ 10 µM | – | – | IC50 [4]: ≤ 10 µM
38 | Clc1ccc(Cc2c[nH]c3nccc(Br)c23)cn1 [Compound P-0447] | ≤ 10 µM | – | ≤ 10 µM | IC50 [4]: ≤ 10 µM
39 | COc1ccc(Sc2c[nH]c3ncc(Cl)cc23)nc1 [Compound P-1574] | – | – | ≤ 10 µM | –
40 | CCOc1cccc(Cc2c[nH]c3ncccc23)c1 [Compound P-0459] | ≤ 10 µM | – | ≤ 10 µM | –
41 | O=[N+]([O-])c1c[nH]c2nccc(Cl)c12 [Compound P-1096] | – | – | ≤ 10 µM | –
42 | O=C(c1cc(F)cc(C(F)(F)F)c1)c1c[nH]c2ncc(-c3ccccc3)cc12 [Compound P-1407, (3-Fluoro-5-trifluoromethyl-phenyl)-(5-phenyl-1H-pyrrolo[2,3-b]pyridin-3-yl)-methanone] | ≤ 10 µM | – | ≤ 10 µM | –
43 | COc1cccc(Cc2c[nH]c3ncc(-c4ccc(C(F)(F)F)cc4)cc23)c1F [Compound P-1324, 3-(2-Fluoro-3-methoxy-benzyl)-5-(4-trifluoromethyl-phenyl)-1H-pyrrolo[2,3-b]pyridine] | – | ≤ 10 µM | – | –
44 | CN(c1ccc(Cl)c(Cl)c1)c1c[nH]c2ncccc12 [Compound P-1494, (3,4-Dichloro-phenyl)-methyl-(1H-pyrrolo[2,3-b]pyridin-3-yl)-amine] | – | ≤ 10 µM | – | –
45 | COC(=O)c1cnc2[nH]ccc2c1 [Compound P-1543] | – | – | ≤ 10 µM | –
46 | O=C(c1cc(OC(F)F)cc(OC(F)F)c1)c1c[nH]c2ncc(-c3ccccc3)cc12 [Compound P-1521, (3,5-Bis-difluoromethoxy-phenyl)-(5-phenyl-1H-pyrrolo[2,3-b]pyridin-3-yl)-methanone] | – | – | ≤ 10 µM | –
47 | COc1cccc(CCc2c[nH]c3ncc(-c4ccsc4)cc23)c1 [Compound P-0519] | – | – | ≤ 10 µM | –
48 | Cc1ccc(Cc2c[nH]c3ncccc23)cc1 [Compound P-0346] | ≤ 10 µM | – | ≤ 10 µM | –
49 | OCCOc1cccc(Cc2c[nH]c3ncccc23)c1 [Compound P-0411] | ≤ 10 µM | – | ≤ 10 µM | –
50 | OC(c1ccc2c(c1)OC(F)(F)O2)c1c[nH]c2ncc(Br)cc12 (stereo not drawn) [Compound P-1550] | ≤ 10 µM | – | ≤ 10 µM | IC50 [4]: ≤ 10 µM
51 | O=C(NCc1ccc(F)cc1)Nc1ccc(F)c(Cc2c[nH]c3ncc(Cl)cc23)c1F [Compound P-1654, 1-[3-(5-Chloro-1H-pyrrolo[2,3-b]pyridin-3-ylmethyl)-2,4-difluoro-phenyl]-3-(4-fluoro-benzyl)-urea] | – | ≤ 10 µM | – | –
52 | COc1ccc(C(=O)c2c[nH]c3ncc(Br)cc23)c(F)c1 [Compound P-1320] | – | – | ≤ 10 µM | –
